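Step 1: Grow cells in 96-well plates. Step 2: Expose to compound for 48 hours at 5 concentrations. Step 3: Interpolate endpoints linearly; if unreached, use highest concentration. GI50 = concentration required for 50% inhibition of growth.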 The source made the active and inactive calls. No stated cut-off is given here; in the data, active = GI50 up to about 1.1 µM and inactive = higher.
What was measured:
Assay in all cases: DTP human tumour cell line panel, 48 h
BT-549 = tested on: BT-549
MDA-MB-231 = tested on: MDA-MB-231
SW-620 = tested on: SW-620
OVCAR-5 = tested on: OVCAR-5
RXF 393 = tested on: RXF 393
COLO 205 = tested on: COLO 205
SK-MEL-28 = tested on: SK-MEL-28
A549 = tested on: A549
MDA-N = tested on: MDA-N
Hs-578T = tested on: Hs-578T
CCRF-CEM = tested on: CCRF-CEM
IGROV-1 = tested on: IGROV-1
NCI-H23 = tested on: NCI-H23
HOP-62 = tested on: HOP-62
MOLT-4 = tested on: MOLT-4
M14 = tested on: M14
HT-29 = tested on: HT-29
HCT-116 = tested on: HCT-116
SR = tested on: SR
MCF7 = tested on: MCF7

SMILES | GI50 (BT-549) | GI50 (MDA-MB-231) | GI50 (SW-620) | GI50 (OVCAR-5) | GI50 (RXF 393) | GI50 (COLO 205) | GI50 (SK-MEL-28) | GI50 (A549) | GI50 (MDA-N) | GI50 (Hs-578T) | GI50 (CCRF-CEM) | GI50 (IGROV-1) | GI50 (NCI-H23) | GI50 (HOP-62) | GI50 (MOLT-4) | GI50 (M14) | GI50 (HT-29) | GI50 (HCT-116) | GI50 (SR) | GI50 (MCF7)
CC1CN(C)c2ccccc2N=C1NN (stereo unspecified) | > 100 µM (inactive) | > 100 µM (inactive) | > 100 µM (inactive) | > 100 µM (inactive) | 0.217 µM (active) | > 100 µM (inactive) | > 100 µM (inactive) | > 100 µM (inactive) | > 100 µM (inactive) | > 100 µM (inactive) | 87.5 µM (inactive) | > 100 µM (inactive) | > 100 µM (inactive) | > 100 µM (inactive) | > 100 µM (inactive) | > 100 µM (inactive) | > 100 µM (inactive) | > 100 µM (inactive) | – | –
CN(C(=O)c1cccs1)C(=S)N1CCN(c2ccccc2)CC1 | > 100 µM (inactive) | > 100 µM (inactive) | > 100 µM (inactive) | > 100 µM (inactive) | > 100 µM (inactive) | > 100 µM (inactive) | > 100 µM (inactive) | > 100 µM (inactive) | > 100 µM (inactive) | 42.7 µM (inactive) | > 100 µM (inactive) | > 100 µM (inactive) | > 100 µM (inactive) | – | 51.8 µM (inactive) | > 100 µM (inactive) | > 100 µM (inactive) | – | 54.2 µM (inactive) | > 100 µM (inactive)
O=C(Nc1cc2c(=O)oc3ccccc3c2oc1=O)c1cccnc1 | > 100 µM (inactive) | > 100 µM (inactive) | > 100 µM (inactive) | > 100 µM (inactive) | > 100 µM (inactive) | > 100 µM (inactive) | > 100 µM (inactive) | > 100 µM (inactive) | > 100 µM (inactive) | – | > 100 µM (inactive) | > 100 µM (inactive) | > 100 µM (inactive) | – | > 100 µM (inactive) | 79.6 µM (inactive) | > 100 µM (inactive) | > 100 µM (inactive) | 78.5 µM (inactive) | > 100 µM (inactive)
Brc1ccc(/N=N/c2ccc3ccccc3n2)cc1 | 14.5 µM (inactive) | > 10 µM (inactive) | 82.6 µM (inactive) | 64.9 µM (inactive) | 28.2 µM (inactive) | > 100 µM (inactive) | – | 46.9 µM (inactive) | 31.8 µM (inactive) | 18 µM (inactive) | > 100 µM (inactive) | 21.4 µM (inactive) | 27.8 µM (inactive) | – | – | > 100 µM (inactive) | 47.4 µM (inactive) | 12.9 µM (inactive) | – | 25.6 µM (inactive)
COc1ccc(C2c3cc4c(c(OC)c3CC3OCC(=O)C32)OCO4)cc1OC (stereo unspecified) | 0.0914 µM (active) | 0.209 µM (active) | 0.0366 µM (active) | 0.153 µM (active) | 0.0212 µM (active) | 0.0267 µM (active) | 31.9 µM (inactive) | 0.0647 µM (active) | < 0.01 µM (active) | < 0.01 µM (active) | 0.0371 µM (active) | < 0.01 µM (active) | 0.0365 µM (active) | – | 0.13 µM (active) | 0.0482 µM (active) | < 0.01 µM (active) | 0.0516 µM (active) | < 0.01 µM (active) | 0.0575 µM (active)
CSc1[nH]nc(N)c1C(=O)Nc1ccccc1 | > 100 µM (inactive) | > 100 µM (inactive) | > 100 µM (inactive) | > 100 µM (inactive) | > 100 µM (inactive) | > 100 µM (inactive) | > 100 µM (inactive) | > 100 µM (inactive) | > 100 µM (inactive) | > 100 µM (inactive) | > 100 µM (inactive) | > 100 µM (inactive) | > 100 µM (inactive) | – | > 100 µM (inactive) | > 100 µM (inactive) | > 100 µM (inactive) | > 100 µM (inactive) | > 100 µM (inactive) | > 100 µM (inactive)
Cc1cc(S(=O)(=O)N2CCNNC2=O)c(S)cc1Cl | 20.8 µM (inactive) | 23.8 µM (inactive) | 36.9 µM (inactive) | > 100 µM (inactive) | 13.7 µM (inactive) | > 100 µM (inactive) | 20 µM (inactive) | 56.4 µM (inactive) | > 100 µM (inactive) | > 100 µM (inactive) | 37 µM (inactive) | 87.9 µM (inactive) | – | – | 31.6 µM (inactive) | 41.6 µM (inactive) | – | – | > 100 µM (inactive) | 77.3 µM (inactive)
CN(C)CCCN1c2ccccc2CCc2ccc([N+](=O)[O-])cc21 | 27.9 µM (inactive) | 39.2 µM (inactive) | 38.5 µM (inactive) | 27.9 µM (inactive) | – | 13.6 µM (inactive) | 25.5 µM (inactive) | 34.6 µM (inactive) | 18.5 µM (inactive) | > 100 µM (inactive) | 39.2 µM (inactive) | 14.9 µM (inactive) | 27.2 µM (inactive) | 25.7 µM (inactive) | 33.3 µM (inactive) | 15.4 µM (inactive) | 19.1 µM (inactive) | 26.9 µM (inactive) | 25.9 µM (inactive) | 17.7 µM (inactive)
O=C(Nc1c(Cl)cccc1Cl)c1c(Cl)c(Cl)c(Cl)c(Cl)c1-c1nc2ccccc2[nH]1 | 56.9 µM (inactive) | – | 64.6 µM (inactive) | > 100 µM (inactive) | 18 µM (inactive) | 42.8 µM (inactive) | 70.6 µM (inactive) | 0.601 µM (active) | 36 µM (inactive) | 61.8 µM (inactive) | > 100 µM (inactive) | 14.2 µM (inactive) | 76.7 µM (inactive) | 0.0501 µM (active) | 75.3 µM (inactive) | 22.1 µM (inactive) | 26 µM (inactive) | 43.5 µM (inactive) | 27.7 µM (inactive) | 34.6 µM (inactive)
Cc1c(-c2nc(N)c(C#N)c(N)c2C#N)c(=O)oc2ccccc12 | > 100 µM (inactive) | > 100 µM (inactive) | 68.5 µM (inactive) | > 100 µM (inactive) | > 100 µM (inactive) | 60.7 µM (inactive) | > 100 µM (inactive) | 45.7 µM (inactive) | > 100 µM (inactive) | > 100 µM (inactive) | 69 µM (inactive) | 9.46 µM (inactive) | 87.9 µM (inactive) | 67.3 µM (inactive) | – | > 100 µM (inactive) | 83 µM (inactive) | 78.2 µM (inactive) | – | 73.6 µM (inactive)
CNc1nnc(CCCCCCCCc2nnc(NC)o2)o1 | > 100 µM (inactive) | > 100 µM (inactive) | 40.7 µM (inactive) | > 100 µM (inactive) | > 100 µM (inactive) | > 100 µM (inactive) | > 100 µM (inactive) | > 100 µM (inactive) | > 100 µM (inactive) | – | 16.2 µM (inactive) | > 100 µM (inactive) | > 100 µM (inactive) | 35.3 µM (inactive) | 34.7 µM (inactive) | > 100 µM (inactive) | 29.9 µM (inactive) | 20.3 µM (inactive) | – | 20.7 µM (inactive)
Cn1c(=O)c2[nH]c(-n3nc(-c4ccccc4)cc3N)nc2n(C)c1=O | 14.5 µM (inactive) | 10.6 µM (inactive) | – | 21.3 µM (inactive) | 26.8 µM (inactive) | 7.05 µM (inactive) | 11 µM (inactive) | 5.78 µM (inactive) | 11.7 µM (inactive) | – | 2.64 µM (inactive) | 1.34 µM (inactive) | – | 12.5 µM (inactive) | 7.14 µM (inactive) | 10.5 µM (inactive) | 4.15 µM (inactive) | 6.49 µM (inactive) | 4.31 µM (inactive) | 13.8 µM (inactive)
Cc1nc(N)c(N2CCN(C(=O)O)CC2)c(O)n1 | > 100 µM (inactive) | > 100 µM (inactive) | > 100 µM (inactive) | > 100 µM (inactive) | – | > 100 µM (inactive) | > 100 µM (inactive) | > 100 µM (inactive) | > 100 µM (inactive) | > 100 µM (inactive) | > 100 µM (inactive) | – | > 100 µM (inactive) | > 100 µM (inactive) | > 100 µM (inactive) | > 100 µM (inactive) | > 100 µM (inactive) | > 100 µM (inactive) | > 100 µM (inactive) | > 100 µM (inactive)
O=c1c(Cc2ccccc2)c(-c2ccccc2)[nH]n1C1=NCCN1 | > 100 µM (inactive) | > 100 µM (inactive) | 38.6 µM (inactive) | 72.6 µM (inactive) | 92.9 µM (inactive) | 35.2 µM (inactive) | – | 40.5 µM (inactive) | 38.5 µM (inactive) | 39.4 µM (inactive) | 16.7 µM (inactive) | 36.5 µM (inactive) | 62.5 µM (inactive) | 56 µM (inactive) | 35.5 µM (inactive) | 25.3 µM (inactive) | 24.2 µM (inactive) | 24.6 µM (inactive) | 22.8 µM (inactive) | 40.1 µM (inactive)
c1ccc(C/C(=N\Nc2nc3ccccc3o2)c2ccccn2)cc1 | 0.342 µM (active) | 0.126 µM (active) | < 0.013 µM (active) | < 0.01 µM (active) | 0.0851 µM (active) | < 0.01 µM (active) | – | 0.437 µM (active) | 0.355 µM (active) | 0.569 µM (active) | < 0.0122 µM (active) | 0.0643 µM (active) | 0.0382 µM (active) | 0.0354 µM (active) | < 0.01 µM (active) | 0.0382 µM (active) | < 0.01 µM (active) | < 0.01 µM (active) | 0.0424 µM (active) | < 0.01 µM (active)

— ChEMBL document CHEMBL1201862, “PubChem BioAssay data set” (2004)
